The experiment has as its target BTK (Homo sapiens (Human), UniProt Q06187). Briefly: Btk in vitro inhibitory activity (one of Method A TR-FRET, Method B electrophoretic mobility shift, Method C radiometric filter binding). It counts as biochemical. Background: Mobility shift assays separate free from complexed probe on a gel.
Setting [1] is: determined using one of the methods of Example 355a, 355b and 355c, read-out: BTK IC50.

Where two headings read alike, the source gives them in different places.

Chain of BTK (Q06187 whole entry): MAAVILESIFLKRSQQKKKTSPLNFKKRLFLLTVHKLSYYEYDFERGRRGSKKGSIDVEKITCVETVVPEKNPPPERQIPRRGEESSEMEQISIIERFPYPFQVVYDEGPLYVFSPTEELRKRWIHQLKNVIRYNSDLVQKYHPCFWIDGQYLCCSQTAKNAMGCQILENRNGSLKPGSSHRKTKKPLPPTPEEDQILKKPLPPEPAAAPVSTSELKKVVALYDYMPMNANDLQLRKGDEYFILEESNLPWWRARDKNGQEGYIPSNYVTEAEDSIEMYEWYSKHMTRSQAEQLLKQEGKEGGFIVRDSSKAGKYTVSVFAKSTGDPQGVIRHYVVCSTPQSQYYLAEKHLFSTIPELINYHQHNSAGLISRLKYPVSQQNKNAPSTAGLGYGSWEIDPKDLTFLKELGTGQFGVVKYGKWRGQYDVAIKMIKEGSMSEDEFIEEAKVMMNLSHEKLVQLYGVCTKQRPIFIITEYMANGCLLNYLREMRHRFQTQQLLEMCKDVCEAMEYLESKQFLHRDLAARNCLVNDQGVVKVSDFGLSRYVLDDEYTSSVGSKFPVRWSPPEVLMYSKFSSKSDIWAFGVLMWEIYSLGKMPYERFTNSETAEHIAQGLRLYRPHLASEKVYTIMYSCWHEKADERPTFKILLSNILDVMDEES

Usually IC50 stands for the point on the concentration scale where inhibition reaches its midpoint. Turning to `CN1CCN([C@@H]2CCCN(c3cnc(C(N)=O)c(Nc4ccc(C5(C)CCN(C=O)CC5)cc4)n3)C2)C1=O` [Example 268, (R)-3-(4-(1-formyl-4-methylpiperidin-4-yl)phenylamino)-5-(3-(3-methyl-2-oxoimidazolidin-1-yl)piperidin-1-yl)pyrazine-2-carboxamide], the IC50 runs as follows: under setting [1], below 10 nM; (read-out: Btk (IC50)) below 10 nM.

Regarding `CCC(=O)N1CCC(C)(c2ccc(Nc3nc(N4CCC[C@@H](N5CCN(C)C5=O)C4)cnc3C(N)=O)cc2)CC1` [Example 269, (R)-3-(4-(4-methyl-1-propionylpiperidin-4-yl)phenylamino)-5-(3-(3-methyl-2-oxoimidazolidin-1-yl)piperidin-1-yl)pyrazine-2-carboxamide], the IC50 by setting is: under setting [1], below 10 nM; (read-out: Btk (IC50)) below 10 nM.

Turning to `CN1CCN([C@@H]2CCCN(c3cnc(C(N)=O)c(Nc4ccc(C5(C)CCN(C(=O)C6CC6)CC5)cc4)n3)C2)C1=O` [Example 270, (R)-3-(4-(1-(cyclopropanecarbonyl)-4-methylpiperidin-4-yl)phenylamino)-5-(3-(3-methyl-2-oxoimidazolidin-1-yl)piperidin-1-yl)pyrazine-2-carboxamide], the IC50 was below 10 nM under setting [1] and below 10 nM (read-out: Btk (IC50)).

For `CN1CCN([C@@H]2CCCN(c3cnc(C(N)=O)c(Nc4ccc(C5(C#N)CCN(C6CCCC6)CC5)cc4)n3)C2)C1=O` [Example 271, (R)-3-(4-(4-cyano-1-cyclopentylpiperidin-4-yl)phenylamino)-5-(3-(3-methyl-2-oxoimidazolidin-1-yl)piperidin-1-yl)pyrazine-2-carboxamide], the IC50 (read-out: Btk (IC50)) was below 10 nM.

As for `CN1CCN([C@@H]2CCCN(c3cnc(C(N)=O)c(Nc4ccc(C5(C(N)=O)CCN(C6CCCC6)CC5)cc4)n3)C2)C1=O` [Example 272, (R)-3-(4-(4-carbamoyl-1-cyclopentylpiperidin-4-yl)phenylamino)-5-(3-(3-methyl-2-oxoimidazolidin-1-yl)piperidin-1-yl)pyrazine-2-carboxamide], under “read-out: Btk (IC50)”, the IC50 was below 10 nM.

As to `CN1CCN([C@@H]2CCCN(c3cnc(C(N)=O)c(Nc4ccc(C5(C#N)CCN(C6CCC6)CC5)cc4)n3)C2)C1=O` [Example 273, (R)-3-(4-(4-cyano-1-cyclobutylpiperidin-4-yl)phenylamino)-5-(3-(3-methyl-2-oxoimidazolidin-1-yl)piperidin-1-yl)pyrazine-2-carboxamide], the IC50 reads like this: under setting [1], below 10 nM; (read-out: Btk (IC50)) below 10 nM.

On to `NC(=O)c1ncc(N2CCC[C@@H](N3CCNC3=O)C2)nc1Nc1ccc(C2CCN(C3CCCC3)CC2)cc1` [Example 274, (R)-3-(4-(1-cyclopentylpiperidin-4-yl)phenylamino)-5-(3-(2-oxoimidazolidin-1-yl)piperidin-1-yl)pyrazine-2-carboxamide], for which the IC50 is below 10 nM under setting [1] and below 10 nM (read-out: Btk (IC50)).

`CCN1CCN([C@@H]2CCCN(c3cnc(C(N)=O)c(Nc4ccc(C5CCN(C6CCCC6)CC5)cc4)n3)C2)C1=O` [Example 275, (R)-3-(4-(1-cyclopentylpiperidin-4-yl)phenylamino)-5-(3-(3-ethyl-2-oxoimidazolidin-1-yl)piperidin-1-yl)pyrazine-2-carboxamide]: the IC50 is, setting by setting: under setting [1], below 10 nM; (read-out: Btk (IC50)) below 10 nM.

As for `CCN1CCN([C@@H]2CCCN(c3cnc(C(N)=O)c(Nc4ccc(C5(C)CCN(C6CC6)CC5)cc4)n3)C2)C1=O` [Example 276, (R)-3-(4-(1-cyclopropyl-4-methylpiperidin-4-yl)phenylamino)-5-(3-(3-ethyl-2-oxoimidazolidin-1-yl)piperidin-1-yl)pyrazine-2-carboxamide], the IC50 is, setting by setting: under setting [1], below 10 nM; (read-out: Btk (IC50)) below 10 nM.

Take `NC(=O)c1ncc(N2CCC[C@@H](N3CCN(C4CC4)C3=O)C2)nc1Nc1ccc(C2CCN(C3CCCC3)CC2)cc1` [Example 277, (R)-3-(4-(1-cyclopentylpiperidin-4-yl)phenylamino)-5-(3-(3-cyclopropyl-2-oxoimidazolidin-1-yl)piperidin-1-yl)pyrazine-2-carboxamide]: the IC50 runs as follows: under setting [1], below 10 nM; (read-out: Btk (IC50)) below 10 nM.

As for `NC(=O)c1ncc(N2CCC[C@@H](N3CCN(C4CC4)C3=O)C2)nc1Nc1ccc(C2CCN(C3CCC3)CC2)cc1` [Example 278, (R)-3-(4-(1-cyclobutylpiperidin-4-yl)phenylamino)-5-(3-(3-cyclopropyl-2-oxoimidazolidin-1-yl)piperidin-1-yl)pyrazine-2-carboxamide], the IC50 is below 10 nM under setting [1] and below 10 nM (read-out: Btk (IC50)).

For `CC1(c2ccc(Nc3nc(N4CCC[C@@H](N5CCN(C6CC6)C5=O)C4)cnc3C(N)=O)cc2)CCN(C2CC2)CC1` [Example 279, (R)-5-(3-(3-cyclopropyl-2-oxoimidazolidin-1-yl)piperidin-1-yl)-3-(4-(1-cyclopropyl-4-methylpiperidin-4-yl)phenylamino)pyrazine-2-carboxamide], where the note is “read-out: Btk (IC50)”, the IC50 is below 10 nM.

Regarding `C[C@@H]1[C@H](N2CCCN(C)C2=O)CCCN1c1cnc(C(N)=O)c(Nc2ccc(C3CCN(C4CCCC4)CC3)cc2)n1` [Example 281, 3-(4-(1-cyclopentylpiperidin-4-yl)phenylamino)-5-((2R,3R)-2-methyl-3-(3-methyl-2-oxotetrahydropyrimidin-1(2H)-yl)piperidin-1-yl)pyrazine-2-carboxamide], the IC50 (Btk (IC50)) was below 10 nM and the IC50 under setting [1] was below 10 nM.

With `CN1CCCN([C@@H]2CCCN(c3cnc(C(N)=O)c(Nc4ccc(C5CCN(C6CCCC6)CC5)cc4)n3)C2)C1=O` [Example 282, (R)-3-(4-(1-cyclopentylpiperidin-4-yl)phenylamino)-5-(3-(3-methyl-2-oxotetrahydropyrimidin-1(2H)-yl)piperidin-1-yl)pyrazine-2-carboxamide], the IC50 runs as follows: under setting [1], below 10 nM; (read-out: Btk (IC50)) below 10 nM.

With `CN1CCCN([C@@H]2CCCN(c3cnc(C(N)=O)c(Nc4ccc(C5(C)CCN(C6CCCC6)CC5)cc4)n3)C2)C1=O` [Example 283, (R)-3-(4-(1-cyclopentyl-4-methylpiperidin-4-yl)phenylamino)-5-(3-(3-methyl-2-oxotetrahydropyrimidin-1(2H)-yl)piperidin-1-yl)pyrazine-2-carboxamide], the IC50 was below 10 nM under setting [1] and below 10 nM (read-out: Btk (IC50)).

For `CN1CCCN([C@@H]2CCCN(c3cnc(C(N)=O)c(Nc4ccc(C5CCN(C6CC6)CC5)cc4)n3)C2)C1=O` [Example 284, (R)-3-(4-(1-cyclopropylpiperidin-4-yl)phenylamino)-5-(3-(3-methyl-2-oxotetrahydropyrimidin-1(2H)-yl)piperidin-1-yl)pyrazine-2-carboxamide], the IC50 under setting [1] is below 10 nM and the IC50 (read-out: Btk (IC50)) is below 10 nM.

With `CN1CCCN([C@@H]2CCCN(c3cnc(C(N)=O)c(Nc4ccc(C5(C)CCN(C6CC6)CC5)cc4)n3)C2)C1=O` [Example 285, (R)-3-(4-(1-cyclopropyl-4-methylpiperidin-4-yl)phenylamino)-5-(3-(3-methyl-2-oxotetrahydropyrimidin-1(2H)-yl)piperidin-1-yl)pyrazine-2-carboxamide], the IC50 is, setting by setting: under setting [1], below 10 nM; (read-out: Btk (IC50)) below 10 nM.

Regarding `NC(=O)c1ncc(N2CCC[C@H]3NCC[C@H]32)nc1Nc1ccc(C2CCN(C3CCCC3)CC2)cc1` [Example 286, 3-(4-(1-cyclopentylpiperidin-4-yl)phenylamino)-5-((3aR,7aR)-dihydro-1H-pyrrolo[3,2-b]pyridin-4(2H,5H,6H,7H,7aH)-yl)pyrazine-2-carboxamide], the IC50 under setting [1] lay within 10 to 100 nM and the IC50 (read-out: Btk (IC50)) fell in the range of 10 to 100 nM.

For the origin of these results see patent US9656988B2 (Pharmacyclics LLC, priority 2013, dated 2017).
